What was measured:
Type in all cases: biochemical
JAK1 = JAK1 (Homo sapiens, UniProt P23458); assay: Inhibition of JAK kinase activity, EZ Reader microfluidic phosphorylation of peptide substrate: JAK1; settings: JAK1 kinase 20 nM; highest final concentration 10 μM, 1:3 serial dilution, 8 points, duplicates
Method in brief: (§1)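 Microfluidic mobility-shift assay reading fluorescent peptide substrate and product; kinases at 20 nM (JAK1) or 1 nM (JAK2, JAK3, Tyk2) in pH 7.4 HEPES with 10 mM MgCl2, run at room temperature to 20-30% conversion, then stopped with EDTA. Compounds tested from 10 μM top, 1:3 over 8 points in duplicate; IC50 fitted from % conversion.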

Tyk2 = Tyk2 (Homo sapiens, UniProt P29597); assay: Inhibition of JAK kinase activity, EZ Reader microfluidic phosphorylation of peptide substrate: Tyk2; settings: Tyk2 kinase 1 nM; highest final concentration 10 μM, 1:3 serial dilution, 8 points, duplicates
Method in brief: as §1

JAK3 = target: T1, JAK3 (Homo sapiens, UniProt P52333); assay: Inhibition of JAK kinase activity, EZ Reader microfluidic phosphorylation of peptide substrate: JAK3; settings: JAK3 kinase 1 nM; highest final concentration 10 μM, 1:3 serial dilution, 8 points, duplicates
T1 sequence (P52333 1-1124): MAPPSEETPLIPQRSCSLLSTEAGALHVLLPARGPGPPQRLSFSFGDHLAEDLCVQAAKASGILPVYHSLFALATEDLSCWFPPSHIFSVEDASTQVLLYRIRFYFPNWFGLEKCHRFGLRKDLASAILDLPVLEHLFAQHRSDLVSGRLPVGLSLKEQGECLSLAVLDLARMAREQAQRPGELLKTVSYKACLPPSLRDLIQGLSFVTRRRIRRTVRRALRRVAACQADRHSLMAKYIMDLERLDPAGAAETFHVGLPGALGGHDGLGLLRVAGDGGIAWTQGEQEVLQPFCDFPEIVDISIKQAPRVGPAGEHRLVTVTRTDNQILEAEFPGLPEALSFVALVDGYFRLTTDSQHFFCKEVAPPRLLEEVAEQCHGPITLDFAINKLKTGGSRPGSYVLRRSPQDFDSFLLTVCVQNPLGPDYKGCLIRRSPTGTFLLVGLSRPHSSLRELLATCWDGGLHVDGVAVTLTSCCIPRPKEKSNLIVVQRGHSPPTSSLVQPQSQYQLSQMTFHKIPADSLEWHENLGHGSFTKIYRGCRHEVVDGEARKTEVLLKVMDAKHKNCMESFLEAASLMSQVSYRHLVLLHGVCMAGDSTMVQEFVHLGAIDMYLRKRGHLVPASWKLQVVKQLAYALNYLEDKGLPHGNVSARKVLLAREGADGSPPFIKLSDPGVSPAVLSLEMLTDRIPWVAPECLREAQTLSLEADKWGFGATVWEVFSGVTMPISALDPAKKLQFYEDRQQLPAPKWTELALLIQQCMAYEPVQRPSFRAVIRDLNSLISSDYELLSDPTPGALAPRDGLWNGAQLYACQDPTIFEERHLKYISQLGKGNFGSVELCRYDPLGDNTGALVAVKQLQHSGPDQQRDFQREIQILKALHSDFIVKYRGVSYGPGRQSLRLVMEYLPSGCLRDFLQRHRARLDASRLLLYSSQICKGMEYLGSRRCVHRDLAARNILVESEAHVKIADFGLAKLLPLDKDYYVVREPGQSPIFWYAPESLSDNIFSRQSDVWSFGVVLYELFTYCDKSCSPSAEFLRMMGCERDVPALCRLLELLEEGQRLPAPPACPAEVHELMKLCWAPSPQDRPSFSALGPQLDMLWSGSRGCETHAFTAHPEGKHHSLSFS
Method in brief: as §1

JAK2 = JAK2 (Homo sapiens, UniProt O60674); assay: Inhibition of JAK kinase activity, EZ Reader microfluidic phosphorylation of peptide substrate: JAK2; settings: JAK2 kinase 1 nM; highest final concentration 10 μM, 1:3 serial dilution, 8 points, duplicates
Method in brief: as §1

Chain of Tyk2 (P29597 whole entry): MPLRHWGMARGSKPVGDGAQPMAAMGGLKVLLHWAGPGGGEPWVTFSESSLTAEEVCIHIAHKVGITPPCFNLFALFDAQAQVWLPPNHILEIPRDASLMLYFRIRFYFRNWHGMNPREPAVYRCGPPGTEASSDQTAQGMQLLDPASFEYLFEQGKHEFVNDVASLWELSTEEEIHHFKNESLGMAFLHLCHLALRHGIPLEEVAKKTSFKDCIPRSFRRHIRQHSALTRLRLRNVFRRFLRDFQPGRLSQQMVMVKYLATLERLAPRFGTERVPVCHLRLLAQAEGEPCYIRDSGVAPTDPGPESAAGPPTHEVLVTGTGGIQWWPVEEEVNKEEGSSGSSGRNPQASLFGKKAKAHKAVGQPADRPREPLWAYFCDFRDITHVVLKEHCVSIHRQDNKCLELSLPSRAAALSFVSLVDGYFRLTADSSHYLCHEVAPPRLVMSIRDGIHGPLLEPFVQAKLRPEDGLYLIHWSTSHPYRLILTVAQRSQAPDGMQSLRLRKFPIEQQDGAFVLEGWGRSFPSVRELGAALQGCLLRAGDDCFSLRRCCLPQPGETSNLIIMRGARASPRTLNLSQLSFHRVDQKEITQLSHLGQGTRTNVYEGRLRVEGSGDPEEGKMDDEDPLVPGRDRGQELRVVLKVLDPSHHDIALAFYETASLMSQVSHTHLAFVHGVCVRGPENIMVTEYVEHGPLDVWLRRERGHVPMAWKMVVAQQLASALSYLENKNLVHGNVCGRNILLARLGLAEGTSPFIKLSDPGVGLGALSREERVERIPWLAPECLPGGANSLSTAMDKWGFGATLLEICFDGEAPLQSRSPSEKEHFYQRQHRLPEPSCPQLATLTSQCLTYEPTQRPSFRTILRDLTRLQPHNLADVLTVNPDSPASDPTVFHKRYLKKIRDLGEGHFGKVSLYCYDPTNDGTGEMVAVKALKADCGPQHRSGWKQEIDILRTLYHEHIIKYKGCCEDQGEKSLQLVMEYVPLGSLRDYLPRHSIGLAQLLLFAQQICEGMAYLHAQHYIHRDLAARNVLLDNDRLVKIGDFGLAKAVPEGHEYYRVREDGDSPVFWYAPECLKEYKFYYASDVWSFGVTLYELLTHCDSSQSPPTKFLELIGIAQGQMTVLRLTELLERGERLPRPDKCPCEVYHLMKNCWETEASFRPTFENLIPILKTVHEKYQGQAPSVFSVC
Chain of JAK1 (P23458 whole entry): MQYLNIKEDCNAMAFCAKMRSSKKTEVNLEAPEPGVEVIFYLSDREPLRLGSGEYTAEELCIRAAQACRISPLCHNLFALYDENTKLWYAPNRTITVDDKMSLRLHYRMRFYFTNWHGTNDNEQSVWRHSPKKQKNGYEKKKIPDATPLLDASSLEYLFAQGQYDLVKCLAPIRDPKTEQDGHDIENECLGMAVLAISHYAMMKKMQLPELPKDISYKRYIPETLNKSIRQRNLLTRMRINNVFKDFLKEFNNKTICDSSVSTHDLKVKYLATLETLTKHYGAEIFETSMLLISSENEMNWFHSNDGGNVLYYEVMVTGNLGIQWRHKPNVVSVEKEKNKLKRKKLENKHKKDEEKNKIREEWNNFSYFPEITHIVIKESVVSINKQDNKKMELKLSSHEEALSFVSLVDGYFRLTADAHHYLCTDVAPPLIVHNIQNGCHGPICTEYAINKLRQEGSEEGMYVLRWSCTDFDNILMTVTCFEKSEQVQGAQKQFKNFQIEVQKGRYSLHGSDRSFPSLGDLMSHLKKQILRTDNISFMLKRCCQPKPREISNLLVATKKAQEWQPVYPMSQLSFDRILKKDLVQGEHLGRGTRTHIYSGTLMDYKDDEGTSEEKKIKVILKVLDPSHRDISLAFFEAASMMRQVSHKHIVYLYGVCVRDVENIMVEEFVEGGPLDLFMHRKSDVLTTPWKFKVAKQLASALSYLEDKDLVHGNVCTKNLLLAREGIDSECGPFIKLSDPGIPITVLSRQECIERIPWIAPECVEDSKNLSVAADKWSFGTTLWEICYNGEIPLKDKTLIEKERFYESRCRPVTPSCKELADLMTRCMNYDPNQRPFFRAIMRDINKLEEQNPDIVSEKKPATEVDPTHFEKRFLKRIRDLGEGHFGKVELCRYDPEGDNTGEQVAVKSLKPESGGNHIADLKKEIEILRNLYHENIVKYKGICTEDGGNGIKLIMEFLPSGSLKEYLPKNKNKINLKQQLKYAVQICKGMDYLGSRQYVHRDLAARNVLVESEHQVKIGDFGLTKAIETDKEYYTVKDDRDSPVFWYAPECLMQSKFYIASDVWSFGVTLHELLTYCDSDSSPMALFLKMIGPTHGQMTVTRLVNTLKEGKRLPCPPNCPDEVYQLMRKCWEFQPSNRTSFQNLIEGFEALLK
Chain of JAK2 (O60674 whole entry): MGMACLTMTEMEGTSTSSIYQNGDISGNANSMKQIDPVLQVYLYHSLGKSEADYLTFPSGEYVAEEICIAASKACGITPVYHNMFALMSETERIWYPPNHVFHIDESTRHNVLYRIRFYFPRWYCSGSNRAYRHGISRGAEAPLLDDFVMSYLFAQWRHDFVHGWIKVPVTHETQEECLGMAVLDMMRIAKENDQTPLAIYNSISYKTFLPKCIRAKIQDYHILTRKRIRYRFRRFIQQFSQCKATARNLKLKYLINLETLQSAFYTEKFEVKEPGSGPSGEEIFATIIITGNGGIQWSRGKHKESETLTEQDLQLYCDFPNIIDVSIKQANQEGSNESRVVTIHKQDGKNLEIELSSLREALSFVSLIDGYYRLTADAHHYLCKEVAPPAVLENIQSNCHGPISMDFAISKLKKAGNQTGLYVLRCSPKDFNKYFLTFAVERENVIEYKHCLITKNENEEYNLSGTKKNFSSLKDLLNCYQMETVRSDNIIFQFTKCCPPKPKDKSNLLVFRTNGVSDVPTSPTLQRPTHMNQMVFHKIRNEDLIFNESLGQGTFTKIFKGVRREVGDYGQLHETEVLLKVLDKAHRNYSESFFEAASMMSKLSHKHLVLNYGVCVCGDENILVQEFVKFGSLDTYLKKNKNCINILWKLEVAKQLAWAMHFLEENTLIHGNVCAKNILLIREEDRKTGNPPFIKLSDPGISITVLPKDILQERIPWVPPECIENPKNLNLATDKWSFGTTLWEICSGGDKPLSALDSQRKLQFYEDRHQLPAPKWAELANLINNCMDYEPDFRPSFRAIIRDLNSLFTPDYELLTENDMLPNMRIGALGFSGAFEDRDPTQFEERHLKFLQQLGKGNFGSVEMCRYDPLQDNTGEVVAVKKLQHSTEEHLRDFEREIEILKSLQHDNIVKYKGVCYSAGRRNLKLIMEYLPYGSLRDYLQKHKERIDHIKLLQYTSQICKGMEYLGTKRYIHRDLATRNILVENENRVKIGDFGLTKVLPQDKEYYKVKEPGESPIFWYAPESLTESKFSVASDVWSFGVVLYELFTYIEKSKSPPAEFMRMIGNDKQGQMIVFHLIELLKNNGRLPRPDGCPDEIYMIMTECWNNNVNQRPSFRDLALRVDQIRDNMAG

SMILES | IC50 (JAK1) [µM] | IC50 (Tyk2) [µM] | IC50 (JAK3) [µM] | IC50 (JAK2) [µM]
CCS(=O)(=O)N1CC(CC#N)(n2ccc(-c3ccnc(Nc4cnn(C)c4)n3)c2)C1 [TDM-180771, 2-(1-(ethylsulfonyl)-3-(3-(2-((1-methyl-1H-pyrazol-4-yl)amino)pyrimidin-4-yl)-1H-pyrrol-1-yl)azetidinpyridin-3-yl)acetonitrile] | 0.1 to 1 | < 0.1 | 1 to 10 | < 0.1
Cn1cc(Nc2nccc(-c3ccn(C4(CC#N)CN(C(=O)C5CC5)C4)c3)n2)cn1 [TDM-180772, 2-(1-(cyclopropanecarbonyl)-3-(3-(2-((1-methyl-1H-pyrazol-4-yl)amino)pyrimidin-4-yl)-1H-pyrrol-1-yl)azetidinpyridin-3-yl)acetonitrile] | 0.1 to 1 | 0.1 to 1 | ≥ 10 | 0.1 to 1
Cn1cc(Nc2nccc(-c3ccn(C4(CC#N)CN(C(=O)CC#N)C4)c3)n2)cn1 [TDM-180775, 3-(3-(cyanomethyl)-3-(3-(2-((1-methyl-1H-pyrazol-4-yl)amino)pyrimidin-4-yl)-1H-pyrrol-1-yl)azetidinpiperazin-1-yl)-3-oxypropionitrile] | 0.1 to 1 | 0.1 to 1 | ≥ 10 | 0.1 to 1
CCCS(=O)(=O)N1CC(CC#N)(n2ccc(-c3ccnc(Nc4cnn(C)c4)n3)c2)C1 [TDM-180785, 2-(3-(3-(2-((1-methyl-1H-pyrazol-4-yl)amino)pyrimidin-4-yl)-1H-pyrrol-1-yl)-1-(propylsulfonyl)azetidinpyridin-3-yl)acetonitrile] | 0.1 to 1 | 0.1 to 1 | ≥ 10 | 0.1 to 1
CCCS(=O)(=O)N1CC(CC#N)(n2cc(-c3ccnc(Nc4cnn(C)c4)n3)cn2)C1 [TDM-180794, 2-(3-(4-(2-((1-methyl-1H-pyrazol-4-yl)amino)pyrimidin-4-yl)-1H-pyrazol-1-yl)-1-(propylsulfonyl)azacyclobutanpyridin-3-yl)acetonitrile] | 0.1 to 1 | 0.1 to 1 | 1 to 10 | 0.1 to 1
Cn1cc(Nc2nccc(-c3cnn(C4(CC#N)CN(S(=O)(=O)Cc5ccccc5)C4)c3)n2)cn1 [TDM-180795, 2-(1-(benzylsulfonyl)-3-(4-(2-((1-methyl-1H-pyrazol-4-yl)amino)pyrimidin-4-yl)-1H-pyrazol-1-yl)azetidinpyridin-3-yl)acetonitrile] | 1 to 10 | 0.1 to 1 | ≥ 10 | 0.1 to 1
CCOCCS(=O)(=O)N1CC(CC#N)(n2cc(-c3ccnc(Nc4cnn(C)c4)n3)cn2)C1 [TDM-180796, 2-(1-((2-ethoxyethyl)sulfonyl)-3-(4-(2-((1-methyl-1H-pyrazol-4-yl)amino)pyrimidin-4-yl)-1H-pyrazol-1-yl)azetidin-3-yl)acetonitrile] | 1 to 10 | 0.1 to 1 | ≥ 10 | 0.1 to 1
Cn1cc(Nc2nccc(-c3cnn(C4(CC#N)CN(S(=O)(=O)C5CCOCC5)C4)c3)n2)cn1 [TDM-180797, 2-(3-(4-(2-((1-methyl-1H-pyrazol-4-yl)amino)pyrimidin-4-yl)-1H-pyrazol-1-yl)-1-((tetrahydro-2H-pyran-4-yl)sulfonyl)azetidin-3-yl)acetonitrile] | 0.1 to 1 | 0.1 to 1 | ≥ 10 | 0.1 to 1
C=CCS(=O)(=O)N1CC(CC#N)(n2cc(-c3ccnc(Nc4cnn(C)c4)n3)cn2)C1 [TDM-180800, 2-(1-(allylsulfonyl)-3-(4-(2-((1-methyl-1H-pyrazol-4-yl)amino)pyrimidin-4-yl)-1H-pyrazol-1-yl)azetidin-3-yl)acetonitrile] | 0.1 to 1 | 0.1 to 1 | 1 to 10 | 0.1 to 1
CCCCS(=O)(=O)N1CC(CC#N)(n2cc(-c3ccnc(Nc4cnn(C)c4)n3)cn2)C1 [TDM-180807, 2-(1-(butylsulfonyl)-3-(4-(2-((1-methyl-1H-pyrazol-4-yl)amino)pyrimidin-4-yl)-1H-pyrazol-1-yl)azetidin-3-yl)acetonitrile] | 1 to 10 | 0.1 to 1 | ≥ 10 | 0.1 to 1

Further lines, results first:

IC50 (JAK1) [µM] | IC50 (Tyk2) [µM] | IC50 (JAK3) [µM] | IC50 (JAK2) [µM] | SMILES
0.1 to 1 | 0.1 to 1 | 1 to 10 | 0.1 to 1 | Cn1cc(Nc2nccc(-c3cnn(C4(CC#N)CN(C(=O)C5CC5(F)F)C4)c3)n2)cn1 (stereo not shown) [TDM-180726, 2-(1-(2,2-difluorocyclo-1-carbonyl)-3-(4-(2-((1-methyl-1H-pyrazol-4-yl)amino)pyrimidin-4-yl)-1H-pyrazol-1-yl)azetidin-3-yl)acetonitrile]
0.1 to 1 | 0.1 to 1 | ≥ 10 | 1 to 10 | Cn1cc(Nc2nccc(-c3cnn(C4(CC#N)CN(C(=O)CC#N)C4)c3)n2)cn1 [TDM-180727, 3-(3-(cyanomethyl)-3-(4-(2-((1-methyl-1H-pyrazol-4-yl)amino)pyrimidin-4-yl)-1H-pyrazol-1-yl)azetidinpiperazin-1-yl)-3-oxypropionitrile]
0.1 to 1 | 0.1 to 1 | 1 to 10 | < 0.1 | CCS(=O)(=O)N1CC(CC#N)(n2cc(-c3ccnc(Nc4cnn(C)c4)n3)cn2)C1 [TDM-180728, 2-(1-(ethylsulfonyl)-3-(4-(2-((1-methyl-1H-pyrazol-4-yl)amino)pyrimidin-4-yl)-1H-pyrazol-1-yl)azetidinpyridin-3-yl)acetonitrile]
0.1 to 1 | 0.1 to 1 | 1 to 10 | 0.1 to 1 | Cn1cc(Nc2nccc(-c3cnn(C4(CC#N)CN(C(=O)CC(F)(F)F)C4)c3)n2)cn1 [TDM-180752, 2-(3-(4-(2-((1-methyl-1H-pyrazol-4-yl)amino)pyrimidin-4-yl)-1H-pyrazol-1-yl)-1-(3,3,3-trifluoropropionyl)azetidin-3-yl)acetonitrile]
0.1 to 1 | 0.1 to 1 | ≥ 10 | 1 to 10 | Cn1cc(Nc2nccc(-c3cnn(C4(CC#N)CN(C(=O)C5CC5)C4)c3)n2)cn1 [TDM-180753, 2-(1-(cyclopropanecarbonyl)-3-(4-(2-((1-methyl-1H-pyrazol-4-yl)amino)pyrimidin-4-yl)-1H-pyrazol-1-yl)azetidinpyridin-3-yl)acetonitrile]
0.1 to 1 | < 0.1 | 1 to 10 | < 0.1 | Cn1cc(Nc2nccc(-c3cnn(C4(CC#N)CN(S(=O)(=O)C5CC5)C4)c3)n2)cn1 [TDM-180766, 2-(1-(cyclopropylsulfonyl)-3-(4-(2-((1-methyl-1H-pyrazol-4-yl)amino)pyrimidin-4-yl)-1H-pyrazol-1-yl)azetidinpyridin-3-yl)acetonitrile]
0.1 to 1 | < 0.1 | 1 to 10 | 0.1 to 1 | Cn1cc(Nc2nccc(-c3ccn(C4(CC#N)CN(S(=O)(=O)C5CC5)C4)c3)n2)cn1 [TDM-180770, 2-(1-(cyclopropylsulfonyl)-3-(3-(2-((1-methyl-1H-pyrazol-4-yl)amino)pyrimidin-4-yl)-1H-pyrrol-1-yl)azetidinpyridin-3-yl)acetonitrile]
< 0.1 | < 0.1 | 1 to 10 | < 0.1 | Cn1cc(Nc2nccc(-c3ccn(C4(CC#N)CN(C(=O)C5CC5(F)F)C4)c3)n2)cn1 (stereo not shown) [TDM-180776, 2-(1-(2,2-difluorocyclo-1-carbonyl)-3-(3-(2-((1-methyl-1H-pyrazol-4-yl)amino)pyrimidin-4-yl)-1H-pyrrol-1-yl)azetidin-3-yl)acetonitrile]
< 0.1 | < 0.1 | 1 to 10 | 0.1 to 1 | Cn1cc(Nc2nccc(-c3ccn(C4(CC#N)CN(C(=O)CC(F)(F)F)C4)c3)n2)cn1 [TDM-180778]

Reference: patent publication US12509447B2, “Small molecule compound” (Technoderma Medicines Pte Ltd, priority 2019, dated 2025)
